# System: yeast genes (level of expressed mRNA)
# Test: DNA chip analysis of expressed mRNA of yeast genes after 2 h culture with a toxic chemical substance
# Type: cell-based, Saccharomyces cerevisiae S288C
# Details: for The level of expressed mRNA in the presence of chemical substance/: ratio to no chemical; for The level of expressed mRNA in the presence of chemical substance/ (ratio to absence): transport facilitation protein gene; for The level of expressed mRNA in the presence of chemical substance/ (ratio to absence of chemical substance): stress protein genes, DNA chip; for The level of expressed mRNA in the presence of chemical substance/ in its absence, gene YPR184W: yeast gene YPR184W
# Outline: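 Values are treated-to-control fluorescence ratios from a whole-yeast-genome DNA chip (65° C, over 12 h hybridization) using Cy3/Cy5-labelled cDNA from mRNA. Log-phase S288C cells in YPD at 25° C were exposed 2 h to a toxicant at sublethal, growth-inhibiting concentration.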
substance,measurement,setting,value
sodium dodecylbenzosulfonate [(17)],The level of expressed mRNA in the presence of chemical substance/,yeast gene YNL240C,0.8
same,The level of expressed mRNA in the presence of chemical substance/in the absence of chemical substance,yeast gene YNL241C,1.0
same,The level of expressed mRNA in the presence of chemical substance/ (ratio to absence),yeast gene YNL259C,2.6
same,The level of expressed mRNA in the presence of chemical substance/,yeast gene YNL260C,0.9
same,The level of expressed mRNA in the presence of chemical substance/in the absence of chemical substance,yeast gene YNL274C,1.4
same,The level of expressed mRNA in the presence of chemical substance/,yeast gene YNL285W,1.2
same,The level of expressed mRNA in the presence of chemical substance/,yeast gene YNL293W,1.0
same,The level of expressed mRNA in the presence of chemical substance/in the absence of chemical substance,yeast gene YNL331C,1.7
same,The level of expressed mRNA in the presence of chemical substance/in the absence of chemical substance,yeast gene YNL332W,1.0
same,The level of expressed mRNA in the presence of chemical substance/The level of expressed mRNA in the absence of chemical substance,yeast gene YNL333W,1.4
same,The level of expressed mRNA in the presence of chemical substance/The level of expressed mRNA in the absence of chemical substance,yeast gene YNR010W,1.7
same,The level of expressed mRNA in the presence of chemical substance/,yeast gene YNR061C,1.6
same,The level of expressed mRNA in the presence of chemical substance/The level of expressed mRNA in the absence of chemical substance,yeast gene YNR069C,1.1
same,"The level of expressed mRNA in the presence of chemical substance/ (in its absence), gene YNR072W","yeast gene YNR072W, ratio of DNA chip fluorescence intensity to that without chemical substance",1.3
same,The level of expressed mRNA in the presence of chemical substance/,yeast gene YNR074C,0.9
same,The level of expressed mRNA in the presence of chemical substance/ (ratio to absence of chemical substance),yeast gene YNR076W,1.5
same,The level of expressed mRNA in the presence of chemical substance/The level of expressed mRNA in the absence of chemical substance,yeast gene YOL013C,1.1
same,The level of expressed mRNA in the presence of chemical substance/,yeast gene YOL084W,1.3
same,"The level of expressed mRNA in the presence of chemical substance/ (ratio to absence), gene YOL096C","yeast gene YOL096C, mitochondria-located protein genes, 2 h culture with chemical",1.2
same,"The level of expressed mRNA in the presence of chemical substance/ (in its absence), gene YOL096C","yeast gene YOL096C, ratio of DNA chip fluorescence intensity to that without chemical substance",1.2
same,"The level of expressed mRNA in the presence of chemical substance/ (in its absence), gene YOL108C","yeast gene YOL108C, ratio of DNA chip fluorescence intensity to that without chemical substance",1.5
same,"The level of expressed mRNA in the presence of chemical substance/ (in its absence), gene YOL116W","yeast gene YOL116W, ratio of DNA chip fluorescence intensity to that without chemical substance",1.1
same,The level of expressed mRNA in the presence of chemical substance/ (ratio to absence),yeast gene YOL119C,1.4
same,The level of expressed mRNA in the presence of chemical substance/in the absence of chemical substance,yeast gene YOL151W,4.0
same,The level of expressed mRNA in the presence of chemical substance/ (ratio to absence),yeast gene YOL158C,1.4
same,The level of expressed mRNA in the presence of chemical substance/,yeast gene YOL159C,2.0
same,The level of expressed mRNA in the presence of chemical substance/ (ratio to absence of chemical substance),yeast gene YOL161C,1.1
same,The level of expressed mRNA in the presence of chemical substance/ (ratio to absence),yeast gene YOL163W,0.8
same,The level of expressed mRNA in the presence of chemical substance/The level of expressed mRNA in the absence of chemical substance,yeast gene YOL164W,1.1
same,The level of expressed mRNA in the presence of chemical substance/in the absence of chemical substance,yeast gene YOL165C,1.6
same,The level of expressed mRNA in the presence of chemical substance/,yeast gene YOR007C,1.2
same,The level of expressed mRNA in the presence of chemical substance/ (ratio to absence of chemical substance),yeast gene YOR008C,0.8
same,The level of expressed mRNA in the presence of chemical substance/ (ratio to absence of chemical substance),yeast gene YOR009W,0.9
same,The level of expressed mRNA in the presence of chemical substance/ (ratio to absence of chemical substance),yeast gene YOR010C,1.4
same,The level of expressed mRNA in the presence of chemical substance/ (ratio to absence),yeast gene YOR035C,1.6
same,The level of expressed mRNA in the presence of chemical substance/The level of expressed mRNA in the absence of chemical substance,yeast gene YOR036W,1.6
same,"The level of expressed mRNA in the presence of chemical substance/ (in its absence), gene YOR103C","yeast gene YOR103C, ratio of DNA chip fluorescence intensity to that without chemical substance",1.1
same,The level of expressed mRNA in the presence of chemical substance/The level of expressed mRNA in the absence of chemical substance,yeast gene YOR117W,1.4
same,The level of expressed mRNA in the presence of chemical substance/in the absence of chemical substance,yeast gene YOR120W,1.3
same,The level of expressed mRNA in the presence of chemical substance/The level of expressed mRNA in the absence of chemical substance,yeast gene YOR124C,1.0
same,The level of expressed mRNA in the presence of chemical substance/ (ratio to absence),yeast gene YOR130C,1.5
same,The level of expressed mRNA in the presence of chemical substance/The level of expressed mRNA in the absence of chemical substance,yeast gene YOR132W,1.2
same,The level of expressed mRNA in the presence of chemical substance/in the absence of chemical substance,yeast gene YOR153W,2.5
same,The level of expressed mRNA in the presence of chemical substance/The level of expressed mRNA in the absence of chemical substance,yeast gene YOR157C,1.2
same,"The level of expressed mRNA in the presence of chemical substance/ (in its absence), gene YOR180C","yeast gene YOR180C, ratio of DNA chip fluorescence intensity to that without chemical substance",0.9
same,The level of expressed mRNA in the presence of chemical substance/The level of expressed mRNA in the absence of chemical substance,yeast gene YOR181W,1.1
same,The level of expressed mRNA in the presence of chemical substance/The level of expressed mRNA in the absence of chemical substance,yeast gene YOR185C,0.9
same,The level of expressed mRNA in the presence of chemical substance/The level of expressed mRNA in the absence of chemical substance,yeast gene YOR198C,1.1
same,The level of expressed mRNA in the presence of chemical substance/,yeast gene YOR220W,3.5
same,The level of expressed mRNA in the presence of chemical substance/,yeast gene YOR225W,0.9
same,The level of expressed mRNA in the presence of chemical substance/in the absence of chemical substance,yeast gene YOR226C,1.0
same,The level of expressed mRNA in the presence of chemical substance/,yeast gene YOR228C,1.0
same,"The level of expressed mRNA in the presence of chemical substance/ (in its absence), gene YOR251C","yeast gene YOR251C, ratio of DNA chip fluorescence intensity to that without chemical substance",0.9
same,The level of expressed mRNA in the presence of chemical substance/,yeast gene YOR255W,1.0
same,The level of expressed mRNA in the presence of chemical substance/The level of expressed mRNA in the absence of chemical substance,yeast gene YOR259C,0.9
same,The level of expressed mRNA in the presence of chemical substance/The level of expressed mRNA in the absence of chemical substance,yeast gene YOR261C,1.0
same,The level of expressed mRNA in the presence of chemical substance/ (ratio to absence),yeast gene YOR270C,0.9
same,The level of expressed mRNA in the presence of chemical substance/ (ratio to absence),yeast gene YOR273C,3.2
same,The level of expressed mRNA in the presence of chemical substance/The level of expressed mRNA in the absence of chemical substance,yeast gene YOR288C,1.5
same,The level of expressed mRNA in the presence of chemical substance/in the absence of chemical substance,yeast gene YOR303W,1.2
same,"The level of expressed mRNA in the presence of chemical substance/ (ratio to absence), gene YOR316C","yeast gene YOR316C, mitochondria-located protein genes, 2 h culture with chemical",0.8
same,The level of expressed mRNA in the presence of chemical substance/ (ratio to absence),yeast gene YOR332W,1.3
same,"The level of expressed mRNA in the presence of chemical substance/ (in its absence), gene YOR348C","yeast gene YOR348C, ratio of DNA chip fluorescence intensity to that without chemical substance",0.9
same,The level of expressed mRNA in the presence of chemical substance/The level of expressed mRNA in the absence of chemical substance,yeast gene YOR355W,0.8
same,"The level of expressed mRNA in the presence of chemical substance/ (in its absence), gene YOR363C","yeast gene YOR363C, ratio of DNA chip fluorescence intensity to that without chemical substance",1.3
same,The level of expressed mRNA in the presence of chemical substance/The level of expressed mRNA in the absence of chemical substance,yeast gene YOR383C,1.4
same,"The level of expressed mRNA in the presence of chemical substance/ (ratio to absence), gene YPL040C","yeast gene YPL040C, mitochondria-located protein genes, 2 h culture with chemical",0.8
same,The level of expressed mRNA in the presence of chemical substance/ (ratio to absence of chemical substance),yeast gene YPL059W,1.8
same,The level of expressed mRNA in the presence of chemical substance/in the absence of chemical substance,yeast gene YPL088W,9.1
same,The level of expressed mRNA in the presence of chemical substance/The level of expressed mRNA in the absence of chemical substance,yeast gene YPL089C,1.5
same,The level of expressed mRNA in the presence of chemical substance/The level of expressed mRNA in the absence of chemical substance,yeast gene YPL109C,1.2
same,"The level of expressed mRNA in the presence of chemical substance/ (ratio to absence), gene YPL134C","yeast gene YPL134C, mitochondria-located protein genes, 2 h culture with chemical",1.3
same,The level of expressed mRNA in the presence of chemical substance/ (ratio to absence of chemical substance),yeast gene YPL140C,0.9
same,The level of expressed mRNA in the presence of chemical substance/ (ratio to absence),yeast gene YPL147W,1.5
same,"The level of expressed mRNA in the presence of chemical substance/ (in its absence), gene YPL148C","yeast gene YPL148C, ratio of DNA chip fluorescence intensity to that without chemical substance",1.0
same,The level of expressed mRNA in the presence of chemical substance/The level of expressed mRNA in the absence of chemical substance,yeast gene YPL149W,2.2
same,The level of expressed mRNA in the presence of chemical substance/The level of expressed mRNA in the absence of chemical substance,yeast gene YPL154C,1.6
same,The level of expressed mRNA in the presence of chemical substance/,yeast gene YPL166W,1.1
same,The level of expressed mRNA in the presence of chemical substance/ (ratio to absence of chemical substance),yeast gene YPL194W,1.0
same,The level of expressed mRNA in the presence of chemical substance/,yeast gene YPL202C,1.1
same,The level of expressed mRNA in the presence of chemical substance/ (ratio to absence),yeast gene YPL224C,1.3
same,The level of expressed mRNA in the presence of chemical substance/ (ratio to absence),yeast gene YPL265W,0.5
same,The level of expressed mRNA in the presence of chemical substance/ (ratio to absence),yeast gene YPL271W,1.2
same,The level of expressed mRNA in the presence of chemical substance/ (ratio to absence),yeast gene YPL274W,0.7
same,The level of expressed mRNA in the presence of chemical substance/ (ratio to absence of chemical substance),yeast gene YPR005C,1.0
same,The level of expressed mRNA in the presence of chemical substance/,yeast gene YPR077C,1.4
same,The level of expressed mRNA in the presence of chemical substance/The level of expressed mRNA in the absence of chemical substance,yeast gene YPR103W,1.2
same,The level of expressed mRNA in the presence of chemical substance/The level of expressed mRNA in the absence of chemical substance,yeast gene YPR108W,1.0
same,The level of expressed mRNA in the presence of chemical substance/ (ratio to absence),yeast gene YPR124W,1.0
same,The level of expressed mRNA in the presence of chemical substance/,yeast gene YPR147C,1.1
same,"The level of expressed mRNA in the presence of chemical substance/ (in its absence), gene YPR165W","yeast gene YPR165W, ratio of DNA chip fluorescence intensity to that without chemical substance",2.3
same,The level of expressed mRNA in the presence of chemical substance/in the absence of chemical substance,yeast gene YPR167C,1.7
same,"The level of expressed mRNA in the presence of chemical substance/ in its absence, gene YPR184W","energy system protein genes, 2 h culture with the chemical, ratio to control without chemical",1.0
same,"The level of expressed mRNA in the presence of chemical substance/ in its absence, gene YPR184W",ratio of DNA chip fluorescence intensity to that without chemical substance,1.0
same,The level of expressed mRNA in the presence of chemical substance/ (ratio to absence),yeast gene YPR201W,0.8

# From patent publication US20050112573A1, “Method of detecting toxic substance” (priority 2001, published 2005)
